# Assay results from US20070128217A1 (priority 2003, published 2007).
# Columns and labels:
# [1] = system: rabbit serum obtained by immunizing a rabbit with the SARS-CoV strain Frankfurt 1; type: binding; design: Binding of a rabbit serum to linear peptides / Binding of a rabbit serum to looped peptides / Rabbit serum linear peptides / Rabbit serum looped peptides / Binding of a rabbit serum to linear peptides of protein N of SARS-CoV Urbani (Rabbit serum linear peptides) / Binding of a rabbit serum to looped/cyclic peptides of protein N of SARS-CoV Urbani (Rabbit serum looped peptides): unit not given here
# [2] = system: antibodies in sera from SARS patients (sera 1a, 1b, 2, 6, 37, 62, London, SARS-yellow, SARS-green); type: binding, human; design: Binding of serum 6 to linear peptides of protein X1 of SARS-CoV Urbani / Binding of serum 37 to linear peptides of protein X1 of SARS-CoV Urbani / Binding of serum 6 to looped/cyclic peptide (PEPSCAN-ELISA) / Binding of serum 37 to looped/cyclic peptide (PEPSCAN-ELISA) / Binding of serum 37 to looped/cyclic peptides of protein X1 of SARS-CoV Urbani / Binding of serum 6 to linear peptides of protein X2 / Binding of serum 37 to linear peptides of protein X2 / Binding of serum 37 to looped/cyclic peptides of protein X2 of SARS-CoV Urbani / Binding of serum 6 to linear peptides of protein M of SARS-CoV Urbani / Binding of serum 37 to linear peptides of protein M of SARS-CoV Urbani / Binding of serum 6 to looped/cyclic peptides of protein M of SARS-CoV Urbani / Binding of serum 37 to looped/cyclic peptides of protein M of SARS-CoV Urbani / Binding of serum 6 to linear peptides of protein X3 of SARS-CoV Urbani / Binding of serum 37 to linear peptides of protein X3 of SARS-CoV Urbani / Binding of serum 37 to looped/cyclic peptides of protein X3 of SARS-CoV Urbani / Binding of serum 6 to linear peptides of protein X4 of SARS-CoV Urbani / Binding of serum 37 to linear peptides of protein X4 of SARS-CoV Urbani / Binding of serum 37 to looped/cyclic peptides of protein X4 of SARS-CoV Urbani / Binding of serum 6 to linear peptides of protein X5 of SARS-CoV Urbani / Binding of serum 37 to linear peptides of protein X5 of SARS-CoV Urbani / Binding of serum 37 to looped/cyclic peptides of protein X5 of SARS-CoV Urbani / Binding of serum 6 to linear peptides of protein N of SARS-CoV Urbani / Binding of serum 37 to linear peptides of protein N of SARS-CoV Urbani / Binding of serum 6 to linear peptide (PEPSCAN-ELISA) / Binding of serum 1a to looped/cyclic peptides of protein N of SARS-CoV Urbani / Binding of serum 1b to looped/cyclic peptides of protein N of SARS-CoV Urbani / Binding of serum 2 to looped/cyclic peptides of protein N of SARS-CoV Urbani / Binding of serum 6 to looped/cyclic peptides of protein N of SARS-CoV Urbani / Binding of serum 37 to looped/cyclic peptides of protein N of SARS-CoV Urbani / Binding of serum 62 to looped/cyclic peptides of protein N of SARS-CoV Urbani / Binding of serum London to looped/cyclic peptides of protein N of SARS-CoV Urbani / Binding of serum SARS-green to looped/cyclic peptides of protein N of SARS-CoV Urbani: unit not given here
# [3] = system: control sera (pooled serum of ten healthy LUMC hospital workers; commercial negative donor pooled serum from the Dutch bloodbank); type: binding, human; design: Binding of Control serum LUMC to linear peptides / Binding of Control serum Blood-bank to linear peptides / Binding of Control serum LUMC to looped peptides / Binding of Control Serum Blood-Bank to Looped peptides / Binding of Control serum LUMC to linear peptides of the protein M of SARS-CoV Urbani / Binding of Control serum Blood-bank to linear peptides of the protein M of SARS-CoV Urbani / Binding of Control serum LUMC to looped peptides of the protein M of SARS-CoV Urbani / Binding of Control Serum Blood-Bank to Looped peptides of the protein M of SARS-CoV Urbani: unit not given here
# [4] = system: recombinant human anti-SARS-CoV antibody 03-018; type: binding; design: Binding of antibody 03-018 to linear peptides of the N protein of SARS-CoV Urbani / Binding of antibody 03-018 to looped/cyclic peptides of the N protein of SARS-CoV Urbani: unit not given here
Sequence,Binding of serum 1a to linear peptides of protein N of SARS-CoV Urbani [2],Binding of serum 1a to looped/cyclic peptides of protein N of SARS-CoV Urbani [2],Binding of serum 1b to linear peptides of protein N of SARS-CoV Urbani [2],Binding of serum 1b to looped/cyclic peptides of protein N of SARS-CoV Urbani [2],Binding of serum 2 to linear peptides of protein N of SARS-CoV Urbani [2],Binding of serum 2 to looped/cyclic peptides of protein N of SARS-CoV Urbani [2],Binding of serum 6 to linear peptides of protein N of SARS-CoV Urbani [2],Binding of serum 6 to looped/cyclic peptides of protein N of SARS-CoV Urbani [2],Binding of serum 37 to linear peptides of protein N of SARS-CoV Urbani [2],Binding of serum 37 to looped/cyclic peptides of protein N of SARS-CoV Urbani [2],Binding of serum 62 to linear peptides of protein N of SARS-CoV Urbani [2],Binding of serum 62 to looped/cyclic peptides of protein N of SARS-CoV Urbani [2],Binding of serum London to linear peptides of protein N of SARS-CoV Urbani [2],Binding of serum London to looped/cyclic peptides of protein N of SARS-CoV Urbani [2],Binding of serum SARS-green to linear peptides of protein N of SARS-CoV Urbani [2],Binding of serum SARS-green to looped/cyclic peptides of protein N of SARS-CoV Urbani [2],Binding of serum SARS-yellow to linear peptides of protein N of SARS-CoV Urbani [2],Binding of serum SARS-yellow to looped/cyclic peptides of protein N of SARS-CoV Urbani [2],Binding of antibody 03-018 to linear peptides of the N protein of SARS-CoV Urbani [4],Binding of antibody 03-018 to looped/cyclic peptides of the N protein of SARS-CoV Urbani [4],other results
APSASAFFGMSRIGM,0.2,0.4,0.1,0.3,0.2,0.7,0.1,0.4,0.5,0.7,0.5,0.9,0.6,2.0,0.2,0.5,0.4,0.6,0.1,0.2,Binding of a rabbit serum to linear peptides of protein N of SARS-CoV Urbani (Rabbit serum linear peptides) [1]: 0.1; Binding of a rabbit serum to looped/cyclic peptides of protein N of SARS-CoV Urbani (Rabbit serum looped peptides) [1]: 0.4; Control Serum Blood-Bank Looped peptides [3]: 0.8; Control serum Blood-bank linear peptides [3]: 0.7; Control serum LUMC linear peptides [3]: 0.5; Control serum LUMC looped peptides [3]: 0.6
DHIGTRNPNNNAATV,0.3,0.5,0.1,0.4,0.3,0.8,0.2,0.5,0.7,1.1,0.7,0.8,0.5,0.7,0.5,0.5,0.7,0.6,0.1,0.3,Binding of a rabbit serum to linear peptides of protein N of SARS-CoV Urbani (Rabbit serum linear peptides) [1]: 0.1; Binding of a rabbit serum to looped/cyclic peptides of protein N of SARS-CoV Urbani (Rabbit serum looped peptides) [1]: 0.5; Binding of Control Serum Blood-Bank to Looped peptides [3]: 0.9; Binding of Control serum Blood-bank to linear peptides [3]: 0.8; Binding of Control serum LUMC to linear peptides [3]: 0.7; Binding of Control serum LUMC to looped peptides [3]: 1.0
QIGYYRRATRRVRGG,0.3,0.3,0.1,0.2,0.2,0.4,0.2,0.3,0.6,0.7,0.6,0.6,0.5,0.4,0.2,0.4,0.6,0.6,0.1,0.2,Recognition of the peptide by the rabbit serum [1]: recognized; Binding of Control Serum Blood-Bank to Looped peptides [3]: 0.8; Binding of Control serum Blood-bank to linear peptides [3]: 0.8; Binding of Control serum LUMC to linear peptides [3]: 0.6; Binding of Control serum LUMC to looped peptides [3]: 0.7
TKQYNVTQAFGRRGP,,0.4,,0.2,,0.5,,0.3,,0.7,,0.7,,0.5,,0.4,,0.6,0.1,0.3,Recognition of the peptide by the rabbit serum [1]: recognized; Binding of serum 1a to linear peptide (PEPSCAN-ELISA) [2]: 0.3; Binding of serum 1b to linear peptide (PEPSCAN-ELISA) [2]: 0.1; Binding of serum 2 to linear peptide (PEPSCAN-ELISA) [2]: 0.2; Binding of serum 6 to linear peptide (PEPSCAN-ELISA) [2]: 0.2; Binding of serum 37 to linear peptide (PEPSCAN-ELISA) [2]: 0.8; Binding of serum 62 to linear peptide (PEPSCAN-ELISA) [2]: 0.7; Binding of serum London to linear peptide (PEPSCAN-ELISA) [2]: 0.5; Binding of serum SARS-green to linear peptide (PEPSCAN-ELISA) [2]: 0.5; Binding of serum SARS-yellow to linear peptide (PEPSCAN-ELISA) [2]: 0.7; Binding of Control Serum Blood-Bank to Looped peptides [3]: 0.9; Binding of Control serum Blood-bank to linear peptides [3]: 0.8; Binding of Control serum LUMC to linear peptides [3]: 0.8; Binding of Control serum LUMC to looped peptides [3]: 0.9
SAPRITFGGPTDSTD,0.2,0.3,0.2,0.2,0.1,0.2,0.1,0.1,0.7,0.5,0.6,0.3,0.5,0.3,0.6,0.9,0.4,0.4,,,Binding of a rabbit serum to linear peptides of protein N of SARS-CoV Urbani (Rabbit serum linear peptides) [1]: 0.2; Binding of a rabbit serum to looped/cyclic peptides of protein N of SARS-CoV Urbani (Rabbit serum looped peptides) [1]: 0.5; Binding of Control Serum Blood-Bank to Looped peptides [3]: 0.5; Binding of Control serum Blood-bank to linear peptides [3]: 0.4; Binding of Control serum LUMC to linear peptides [3]: 0.5; Binding of Control serum LUMC to looped peptides [3]: 0.4; Recognition of the peptide by antibody 03-018 [4]: recognized
